Data from publication PMC4912613, “A broad analysis of resistance development in the malaria parasite” (Nature Communications, 2016).
Read-outs that look alike come from different tables or passages of the source.

Columns and labels:
[1] = system: P. falciparum; test: Rate of killing (parasite viability) assay; format: cell-based, Plasmodium falciparum; settings: profile compared with chloroquine, pyrimethamine, atovaquone; 48 h treatment
Method: To identify whether selection success could be predicted by compound speed of action, and to gain a greater insight into the potential mechanisms of action, assays were performed to test the killing rate (Supplementary Data 1)[33]. To quantify the killing rate, viability time-course profiles for each compound were compared with antimalarials known to have fast (chloroquine), moderate (pyrimethamine) or slow (atovaquone) rate of action. These rates were then compared with other compound characteristics, including cross-resistance profile, selection success, potency and structural characteristics to identify any possible trends. […] One compound's rate of killing, MMV666080, was unidentifiable due to compound availability. No correlation was seen between compound structure and speed of action. Additionally, there was no correlation found between killing rate and compound potency against 3D7, nor between potency and selection success (Supplementary Fig. 2).
Rate of killing was determined for each compound following a previously described methodology, which uses the invasion of fresh erythrocytes as surrogate of parasite viability. Briefly, parasites were treated with compounds for 48 h. Compound was washed out and fresh-labelled erythrocytes added to the treated parasites. Double stained erythrocytes (RBC label plus parasite DNA label) were quantified and per cent of survival determined.

[2] = system: 3D7; test: Cross-resistance EC50 assay, 3D7 parent / sensitive strain; format: cell-based; settings: Plasmodium falciparum
Source text: Multidrug resistance alleles, including mutations in P. falciparum chloroquine resistance transporter (pfcrt) and P. falciparum multi-drug resistance transporter 1 (pfmdr1) are very common in field isolates. Therefore, we sought to assess the degree to which pre-existing resistance alleles would contribute to a loss of potency for this diverse collection of small molecule compounds. Fifteen clones derived from three main parent lines were chosen to maximize diversity in mutated pathways and genetic backgrounds, thus representing the variety of resistance seen in the field: 3D7 (ref. [23]), W2 (ref. [24]) or Dd2 (ref. [25]). The 3D7 line originates from the clone of a Netherlands clinical isolate strain[23][26] and is generally considered to be drug sensitive, though it does convey resistance to sulfadoxine. Conversely, W2 (ref. [24], [27]) and Dd2 (ref. [25]) are multi-drug-resistant lines originating from the Indochina III/CDC isolate, which contain point mutations in pfcrt as well as amplifications in pfmdr1 and GTP cyclohydrolase.
To evaluate potential overlapping activity against known antimalarial drug targets, we performed dose-response studies with each compound against our assembled set of drug-resistant lines and their corresponding parents, in an asexual blood stage proliferation assay (Table 1). Comparisons were made to the drug-sensitive strain 3D7 when a parent was unavailable (TM90C2A, W2 and Dd2). As laboratories conducted EC50 assays with different strains and protocols, all comparisons were made between assays from the same laboratory and under the same assay conditions. Compounds displaying >5-fold EC50 shifts relative to the parent or sensitive strain were flagged as having potentially non-novel targets. Average fold shifts per strain ranged from 0.82 to 2.34, with a median of 1.23 indicating there was not common resistance to any one resistant clone. No resistance patterns were observed when classifying the compounds based on chemical structure, but this was not surprising given the diversity of compounds chosen. On the other hand, given that these confirmed compounds were derived from larger unconfirmed hit lists to which some filtration criteria may have been applied (for example, elimination of obvious dihydrofolate reductase inhibitors[32]), some[10][11][12][13] pre-existing bias may exist in the set.
The 48-h assay was carried out in a 96-well format following standard methods using the ^3H-hypoxanthine incorporation assay. The raw EC50 values corresponding to this assay can be found in Supplementary Data 3. Briefly, this assay relies on the parasite incorporation of labelled hypoxanthine that is proportional to P. falciparum growth. A culture of parasitized RBCs (0.5% parasitemia with a percentage of ring stage higher than 70% of total parasitemia, 2.0% haematocrit) in RPMI-1640, […] and 5 μM hypoxanthine was exposed to drug serial dilutions. Plates were incubated for 24 h at 37 °C, 5% CO2, 5% O2 and 90% N2. After 24 h of incubation, ^3H-hypoxanthine was added and plates were incubated for an additional 24-h period. After that, parasites were harvested on a glass fibre filter using a TOMTEC Cell Harvester 96. Filters were dried and melt-on scintillator sheets were used to determine the incorporation of ^3H-hypoxanthine. Radioactivity was measured using a microbeta counter. Data were normalized using the incorporation of the positive (parasitized RBCs without drug) and negative (same culture with artesunate at 2 μM) controls. All assays were conducted in triplicate using three independently grown cultures, and EC50 values were determined using the XLfit add-in module for Excel (version 2.3.1) from Grafit (version 5.3.1.3), where parameter h is the assay hill slope, x is the compound concentration and y is the inhibition of growth effect. The XLfit equation is: […]
Alternatively, a SYBR Green-based proliferation approach was used for the 72-h assay, as previously described. […]

[3] = system: Stage 5 gametocytes from P. falciparum NF54; test: Late-stage (stage V) gametocyte survival assay, MitoTracker; format: cell-based, Plasmodium falciparum; settings: for EC50: Plasmodium falciparum, P. falciparum NF54, 72 h, read-out: Stage 5 Gametocyte EC50; for EC50 fold shift compared to asexual stage: Stage 5 Gametocyte EC50: gametocyte EC50 / 3D7 EC50
Method: The second assay was a late-stage (stage V) gametocyte survival assay, which predicts transmission-blocking activity. […] Positive and negative control compounds included puromycin (0.61±0.11 μM) and atovaquone (> 12.50 μM), respectively.
To test sexual-stage activity, compounds were tested against late-stage gametocytes using a MitoTracker fluorescent-based assay. Specifically, synchronized stage V gametocytes were incubated with compound for 72 h. MitoTracker Red CMXRos (Life Technologies) was added to each well (final concentration: 500 nM) together with saponin to lyse the RBCs. Each plate was then imaged with an Operetta High Content Imaging System (Perkin Elmer) for fluorescence (590–640 nm). Varying levels of compound concentration were used (1.25 μM or 12.5 μM) due to the stock concentration supplied.
The gametocytocidal activity was measured using high-content image analysis software (Harmony, Perkin Elmer). The readout was based on number of metabolically active gametocytes per well.

[4] = SYBR green 72 hour assay, asynchronized parasites, 96-well or 1536-well format, 3D7 parent, read-out: 3D7 (PARENT) EC50 (µM) Average EC50
[5] = SYBR green 72 hour assay, synchronized parasites, 384-well format, strain 3D7 (parent), read-out: 3D7 (PARENT) Average EC50
[6] = hypoxanthine 48-hour assay, synchronized parasites, 96-well format, strain 3D7 (parent), read-out: 3D7 (PARENT) Average EC50
[7] = hypoxanthine 48-hour assay, synchronized parasites, 96-well format, strain 3D7-C9-WT (parent of PfATP4 Mut3), read-out: 3D7-C9-WT (PARENT) Average EC50

SMILES | Killing Rate [1] | EC50 [2, 4] | EC50 [2, 5] | EC50 [2, 6] | EC50 [2, 7] | EC50 [3] | EC50 fold shift compared to asexual stage: Stage 5 Gametocyte EC50 [3]
COc1ccc(-c2nc(NC(=O)Cc3ccc4c(c3)OCCO4)sc2C)cc1 [MMV019719] | CQ (fast) | 0.236 µM | 0.2 µM | 0.165 µM | 0.132 µM | 5520 nM | 33.66
CCC(C)NCC(O)(c1ccc(Cl)cc1)c1ccc(Cl)cc1 (stereo not drawn) [MMV665928] | CQ (fast) | 0.028 µM | 0.972 µM | 0.494 µM | 1.16 µM | > 1250 nM | > 2.5
CC(C)c1cccc(C(NC(=O)C2Cc3ccccc3CN2C(=O)c2cccc(N3CCOCC3)c2)C2CCCC2)c1 (stereo not drawn) [MMV028038] | ATQ (slow) | 1.09 µM | 0.822 µM | 0.577 µM | 0.833 µM | 1180 nM | 2.19
COc1cc(-c2nc(-c3ccccc3)c(-c3ccccc3)[nH]2)cc(OC)c1O [MMV020750] | PYR (moderate) | 0.575 µM | 0.597 µM | 0.342 µM | 0.656 µM | > 1250 nM | > 3.6
COc1ccc(N2CCN(C(CNC(=O)C3CCCCC3)c3ccc4c(c3)OCO4)CC2)cc1 (stereo not drawn) [MMV019662] | ATQ (slow) | 0.358 µM | 0.98 µM | 0.34 µM | 0.81 µM | 3680 nM | 10.82
CC(C)(C)OC(=O)N1CCN(c2ccccc2NC(=O)c2cccc(C(F)(F)F)c2Oc2ccc(F)cc2)CC1 [MMV030666] | PYR (moderate) | 0.122 µM | 0.627 µM | 0.494 µM | 0.333 µM | 993 nM | 2.04
CCN(CC)S(=O)(=O)c1ccc(-c2csc(Nc3ccc(C)c(C)c3)n2)cc1 [MMV009108] | ATQ (slow) | 0.851 µM | 0.759 µM | 0.93 µM | 1.11 µM | 921 nM | 0.99
CNCc1ccc2nc(-c3coc(Cc4cc(Cl)ccc4OCC(C)C)n3)[nH]c2c1.Cl.Cl [MMV026596] | PYR (moderate) | 0.304 µM | 0.321 µM | 0.377 µM | 0.472 µM | 6350 nM | 18.35
COc1ccc(C(=O)C2CC2c2ccc(Cl)cc2)cc1 (stereo not drawn) [MMV665924] | CQ (fast) | 2.46 µM | 0.976 µM | 0.824 µM | 0.487 µM | > 1250 nM | > 1.5
Cc1nc2ccc3ccc(CNc4ccc(C(=O)CC(CCC(=O)O)C(=O)O)cc4)cc3c2c(=O)[nH]1.Cl (stereo not drawn) [MMV027634] | ATQ (slow) | 0.148 µM | 0.029 µM | 0.025 µM | 0.042 µM | > 12500 nM | > 543
Cc1ccc(Oc2ncccc2C(=O)Cc2cccc3cccnc23)c(C)c1 [MMV020746] | ATQ (slow) | 0.993 µM | 0.096 µM | 0.074 µM | 0.093 µM | 3790 nM | 49.87
COc1cc(-c2nc(-c3ccccc3)c(-c3ccccc3)[nH]2)ccc1OCCN(C)C [MMV027496] | PYR/CQ (moderate) | 0.241 µM | 0.118 µM | 0.112 µM | 0.084 µM | > 12500 nM | > 112
CCCOCc1cc(CN2CCN(c3cccc(Cl)c3)CC2)c(O)c2ncccc12 [MMV000787] | CQ (fast) | 0.645 µM | 0.631 µM | 1.46 µM | 0.935 µM | 5670 nM | 
COC(=O)c1ccc(C2C3=C(O)CC(c4ccc(F)cc4)CC3=Nc3ccccc3N2C(=O)c2ccccc2)cc1 (stereo not drawn) [MMV011438] | ATQ (slow) | 0.187 µM | 0.229 µM | 0.428 µM | 0.513 µM | 971 nM | 2.25
FC(F)(F)c1cccc(Nc2nc3ccccc3nc2Nc2cccc(C(F)(F)F)c2)c1 [MMV665794] | PYR (moderate) | 0.318 µM | 0.164 µM | 0.103 µM |  | 836 nM | 
O=C(Nc1ccsc1C(=O)NC1CCCCC1)c1ccc(F)cc1 [MMV665939] | ATQ (slow) | 1.22 µM | 0.726 µM | 1.04 µM | 2.1 µM | > 1250 nM | 
Brc1ccc(Nc2nc3ccccc3nc2Nc2ccc(Br)cc2)cc1 [MMV007224] | ATQ (slow) | 0.709 µM | 0.367 µM | 0.284 µM | 0.398 µM | 2520 nM | 11.35
Nc1ncc(-c2cn[nH]c2)cc1-c1nc2ccc(F)cc2[nH]1 [MMV023367] | CQ (fast) | 1.13 µM | 0.519 µM | 0.303 µM | 0.269 µM | 6680 nM | 22.12
OC(CNC1CCCCC1)Cn1c2ccc(I)cc2c2cc(I)ccc21 (stereo not drawn) [MMV665882] | ATQ (slow) | 0.023 µM | 0.035 µM | 0.075 µM | 0.158 µM | 323 nM | 4.44
